Laboratory results: patent US20210137854A1, “TAAR Receptor Agonists for the Treatment of Alopecia” (APPLIED BIOLOGY, INC., priority 2018, published 2021)

What was measured:
Format in all cases: in vivo, human
scalp hair follicles [1] = test: Epilation force threshold for plucking scalp hair (trichotillometer)
Protocol: To evaluate the effect of a topically applied TAAR agonist combination on the force required to pluck hairs from the scalp, a hand-held spring dynamometer, or “trichotillometer” was used. The trichotillometer records the maximum force threshold, in grams, required to pluck a single hair from the scalp; the performance and statistical variance of the instrument have been reported previously. […] The frontal area of scalp was divided into two 8×10 cm^2 areas. On the right side 0.5 mL of a placebo vehicle was applied. On the left side, 0.5 mL a 12% tyramine solution was applied. After 45 minutes, ten hairs were plucked from each of the target areas with the trichotillometer.

scalp hair follicles [2] = test: Hair shedding during brushing after topical solution versus placebo
From the text: Participants included in the study were female subjects between ages of 18 and 60 who frequently use traumatic hair care practices, such as tight braids, head scarves, ponytails, extensions, hair rollers, hair weaves and heated styling appliances such as blow dryers, flat irons, heat setters and curling irons. Excluded subjects were those who experienced uncontrolled hypertension, those who were pregnant or breastfeeding, those who were diagnosed with pattern hair loss, or those who experienced other hair loss in conjunction with female pattern hair loss. Overall, fifteen female subjects, aged 24 to 40 years, participated in the study.
On day 1, subjects were instructed to wash their hair. On day 2, subjects were instructed to apply 1 mL of placebo solution containing vehicle and brush targeted area after 30 minutes. Brushing was conducted to frontal hair with regular brush in size of 8×10 cm^2. On day 3, subjects were instructed again to wash their hair. On day 4, subjects were instructed to apply 1 mL of 10% m-octopamine hydrochloride solution on targeted area and brush after 30 minutes.
The study was conducted over 4 days. On day 1, subjects were instructed to wash their hair. […]
Hair Shedding: To measure hair loss during cosmetic procedures, a 4-day protocol was designed. […] After each clinical procedure, the investigator counted the hairs collected on each brush. […]

[3] = Cardiac or hemodynamic changes during topical α1-AR agonist studies; conditions: subjects sampled during both studies
From the text: It is recognized that […] of the α1 adrenergic receptor (α1-AR), a G-protein coupled receptor, expressed on the arrector pili muscle.

SMILES: CNC[C@H](O)c1cccc(O)c1 [phenylephrine]
- increase in epilatory force threshold for plucking hair follicles (scalp hair follicles [1]; following topical application, Examples 5 and 6, FIGS. 4-5): 172%
- increase in average threshold of force required to pluck hair (scalp hair follicles [1]; pilot study of 15 female subjects): 172%
- subjects with reduced shedding compared to days using placebo solution (scalp hair follicles [2]; Examples 7 and 9, blinded study, female subjects ages 18-40): 80%
- reduction in hairs lost (shedding) during brushing (scalp hair follicles [2]; earlier studies of the inventors, phenylephrine 15 female subjects, AB-102 cohort of 40 women): 40%
- cardiac or hemodynamic changes [3]: no cardiac or hemodynamic changes were observed
